Experimental data as given in patent US7510836B2, “Alpha arteether resistance domain” (priority 2003, dated 2009).

Tests used:
Format in all cases: cell-based, Escherichia coli
[1] = test system: E. coli DH5 α (gyrA−); test: Disc diffusion, zone of inhibition; conditions: 250 μg/disc, Luria agar
Experimental: (§1) To ascertain the involvement of gyrA mutation, another E.coli strain NK 5819 which is also GyrA″ and nalidixic acid resistant was tested for arteether sensitivity. As expected, strain NK5819 was also sensitive only to a-isomer of arteether. […] The assays for arteether sensitivity was performed by the standard single disk diffusion method (Bauer et al, 1966). As a next step, we isolated gyrA mutants of E.coli strain CA 8000, which is otherwise Gyr+ and nalidixic acid sensitive. The gyrA mutants of CA8000 were isolated as nalidixic acid resistant colonies (20 ug/ml), after mutagenic treatment with NTG ([…]). The isolated CA8000 gyrA mutants were also sensitive only to a isomer of arteether. […] To define precisely the involvement of gyr genes only in the a-arteether sensitivity, we utilised two recombinant clones (pMK 90 and pMK47 containing functional gyr A and gyrB genes respectively) in trans-complementation assays. For this purpose, we mobilized the plasmid clones into the E.coli gyr mutant strains. The resulting transformants were now nalidixic acid sensitive and a-arteether resistant. This constituted the direct evidence supporting our observation that DNA gyrase enzyme alone is involved in conferring a-arteether sensitivity to E.coli strain. […] DNA gyrase enzyme is essential for the bacterial growth. This enzyme transiently breaks the DNA strands and introduces negative superhelical turns in an ATP-dependent process. The E.coli DNA gyrase enzyme is a tetramer with two subunits A and B. These two subunits are nalidixic acid and coumermycin sensitive respectively (U.S. Pat. No. 6,127,405 and a co-pending patent).
(§2) The strains of E coli mutants were grown on Luria agar medium and beta-arteether (250 μg/disc) was applied on disc. The clear zone around the disc killing the bacteria is called Zone of Inhibition (ZOI). This is the measure of sensitivity of the strain towards the compound […].

[2] = test system: E. coli ET8000 (gyrA−); test: Disc diffusion, zone of inhibition; conditions: 250 μg/disc, Luria agar
Experimental: as §1, §2

[3] = test system: E. coli NK5819 (gyrA−); test: Disc diffusion, zone of inhibition; conditions: 250 μg/disc, Luria agar
Experimental: as §1, §2

[4] = test system: E. coli mutant CA8001; test: Disc diffusion, zone of inhibition; conditions: 250 μg/disc, Luria agar
Experimental: as §1
(§3) In order to develop an arteether resistant mutants from an arteether sensitive strains a reverse strategy was applied. Quinoline/fluoroquinolone (Q/FQs) resistant strains were developed spontaneously i.e. screening overnight log phase culture of the Quinolone/fluoroquinolone sensitive i.e. arteether resistant strain (E coli CA 8000) on the poison agar plate of the Q/FQs. The Q/FQ resistant mutants which appeared on the poison agar plates were first purified through single colony purification and then checked for their arteether sensitivity. These arteether sensitive mutants on the contrary when checked for their Q/Fqs resistance they show different level of Q/FQs resistance.
as §2

[5] = test system: E. coli mutant CA8002; test: Disc diffusion, zone of inhibition; conditions: 250 μg/disc, Luria agar
Experimental: as §1, §3, §2

[6] = test system: E. coli mutant CA8003; test: Disc diffusion, zone of inhibition; conditions: 250 μg/disc, Luria agar
Experimental: as §1, §3, §2

[7] = test system: E. coli mutant CA8006; test: Disc diffusion, zone of inhibition; conditions: 250 μg/disc, Luria agar
Experimental: as §1, §3, §2

[8] = test system: E. coli mutant CA8007; test: Disc diffusion, zone of inhibition; conditions: 250 μg/disc, Luria agar
Experimental: as §1, §3, §2

[9] = test system: E. coli mutant CA8009; test: Disc diffusion, zone of inhibition; conditions: 250 μg/disc, Luria agar
Experimental: as §1, §3, §2

[10] = test system: E. coli mutant CA8010; test: Disc diffusion, zone of inhibition; conditions: 250 μg/disc, Luria agar
Experimental: as §1, §3, §2

[11] = test system: E. coli mutant CA8012; test: Disc diffusion, zone of inhibition; conditions: 250 μg/disc, Luria agar
Experimental: as §1, §3, §2

[12] = test system: gyr mutant strains of E.coli; test: Arteether sensitivity of gyr mutants; conditions: gyr mutants DH5a, NK5819, MTCC 482, CA8000 gyrA mutants
Experimental: as §1, with “This enzyme transiently breaks the DNA strands and introduces negative superhelical turns in an ATP-dependent process. The E.coli DNA gyrase enzyme is a tetramer with two subunits A and B. These two subunits are nalidixic acid and coumermycin sensitive respectively (U.S. Pat. No. 6,127,405 and a co-pending patent).” left out

## CCO[C@H]1O[C@@H]2O[C@@]3(C)CC[C@H]4[C@H](C)CC[C@@H]([C@H]1C)[C@@]24OO3 [beta-arteether]
[1]
  Net ZOI in mm: 5 mm
[2]
  Net ZOI in mm: 5 mm
[3]
  Net ZOI in mm: 7 mm
[4]
  Net ZOI in mm: 10 mm
[5]
  Net ZOI in mm: 5 mm
[6]
  Net ZOI in mm: 9 mm
[7]
  Net ZOI in mm: 11 mm
[8]
  Net ZOI in mm: 8 mm
[9]
  Net ZOI in mm: 14 mm
[10]
  Net ZOI in mm: 10 mm
[11]
  Net ZOI in mm: 8 mm
[12]
  Sensitivity: none of the above described gyr mutants were sensitive
